PMC12112773, “Chemical Constituents and α-Glucosidase Inhibitory Activities of the Leaves of Embelia parviflora—In Vitro and In Silico Studies” (Life, 2025)
Like-named read-outs stand apart in the source and are kept apart here.

Legend:
[1] = biological target: T1, α-glucosidase from Saccharomyces cerevisiae (Saccharomyces cerevisiae, UniProt P53341); test: in vitro assay of α-glucosidase enzyme inhibition (p-nitrophenyl α-D-glucopyranoside substrate); type: biochemical
T1 construct: purchased Sigma Aldrich (St. Louis, MO, USA)
Experimental: Enzyme α-glucosidase from Saccharomyces cerevisiae (E.C. 232-604-7) and p-nitrophenyl-α-D-glucopyranoside were purchased from Sigma Aldrich (St. Louis, MO, USA).
The in vitro assay of α-glucosidase enzyme inhibition of the E. parviflora MeOH extract and tested compounds was conducted following the methodology outlined in our earlier study [38]. Briefly, solutions of MeOH extract and isolated compounds at 256 μg/mL, 64 μg/mL, 16 μg/mL, 4 μg/mL, and 1 μg/mL concentrations were prepared using DMSO (Merck). The compound solution (2 μL) and 0.2 U/mL α-glucosidase enzyme solution (25 µL) in 120 µL phosphate buffer were mixed. After 5 min preincubation, a solution of 2.5 mM p-nitrophenyl α-D-glucopyranoside (25 µL) prepared in phosphate buffer was added. The reaction mixture was incubated at 37 °C for 30 min and was stopped by adding 0.2 M of Na2CO3 (100 µL). Enzymatic activity (the absorbance of the released p-nitrophenol) was quantified by measuring at 410 nm using a Biotek reader. The % inhibition was calculated using the following equation:Inhibition (%) = [1 − (Asample/Acontrol)] × 100
The biological experiments were performed in triplicate. The IC50 values are presented as the mean ± standard deviation (S.D) using the program Statistica 10.

α-glucosidase = conditions: cited from earlier work
[2] = mean ± S.D, triplicate, 37 °C, 30 min, read-out: α-Glucosidase inhibitory activity IC50

T1 sequence (P53341 whole entry): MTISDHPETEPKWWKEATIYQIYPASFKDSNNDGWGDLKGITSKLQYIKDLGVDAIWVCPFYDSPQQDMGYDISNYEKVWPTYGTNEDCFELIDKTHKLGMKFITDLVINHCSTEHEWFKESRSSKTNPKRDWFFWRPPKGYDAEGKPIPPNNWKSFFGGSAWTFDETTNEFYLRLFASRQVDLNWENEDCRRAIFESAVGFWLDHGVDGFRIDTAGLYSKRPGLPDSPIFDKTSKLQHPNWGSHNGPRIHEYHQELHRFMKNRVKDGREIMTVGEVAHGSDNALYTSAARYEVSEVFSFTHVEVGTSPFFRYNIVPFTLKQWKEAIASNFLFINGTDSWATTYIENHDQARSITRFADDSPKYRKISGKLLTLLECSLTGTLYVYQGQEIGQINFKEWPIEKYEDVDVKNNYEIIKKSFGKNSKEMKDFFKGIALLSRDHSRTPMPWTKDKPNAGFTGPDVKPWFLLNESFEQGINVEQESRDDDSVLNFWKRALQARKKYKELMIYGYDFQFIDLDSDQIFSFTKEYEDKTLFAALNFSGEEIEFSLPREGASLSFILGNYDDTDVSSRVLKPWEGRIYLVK

Row | IC50 [1, 2] [µM] | SMILES | further results
1 | > 419 | CC1OC(Oc2c(-c3ccc(O)c(OC4OC(CO)C(O)C(O)C4O)c3)oc3cc(O)cc(O)c3c2=O)C(O)C(O)C1O (stereo not drawn) [Compound 8, quercetin-3-rhamnoside-3′-glucoside] | 
2 |  | C[C@H]1[C@H](C)CC[C@]2(C(=O)O)CC[C@]3(C)C(=CC[C@@H]4[C@@]5(C)CC[C@H](O)C(C)(C)[C@@H]5CC[C@]43C)[C@H]12 [Compound 4, ursolic acid] | manner of inhibition (α-glucosidase): non-competitive; IC50 [1]: 3.07 µM
3 | > 509 | CC1=CC(=O)CC(C)(C)[C@H]1/C=C/[C@@H](C)O[C@@H]1O[C@H](CO[C@@H]2OC[C@](O)(CO)[C@H]2O)[C@@H](O)[C@H](O)[C@H]1O [Compound 11, (6R,7E,9R)-9-hydroxy-4,7-megastigmadien-3-one-9-O-β-D-apiofuranosyl(1->6)-β-D-glucopyranoside] | 
4 | > 444 | CC[C@H](CC[C@@H](C)[C@H]1CC[C@H]2[C@@H]3CC=C4C[C@@H](O[C@@H]5O[C@H](CO)[C@@H](O)[C@H](O)[C@H]5O)CC[C@]4(C)[C@H]3CC[C@]12C)C(C)C [Compound 2, daucosterol] | anti-α-glucosidase activity IC50 (α-glucosidase): 247.35 µg/mL
5 | > 1440 | COC(=O)/C=C/c1ccc(O)cc1 [Compound 13, methyl trans-p-coumarate] | IC50 (α-glucosidase; read-out: inhibition of α-glucosidase IC50): 54.1 µM
6 |  | C[C@@H]1O[C@@H](Oc2c(-c3ccc(O)c(O)c3)oc3cc(O)cc(O)c3c2=O)[C@H](O)[C@H](O)[C@H]1O [Compound 7, quercitrin] | IC50 (α-glucosidase; Dang's group, read-out: α-glucosidase inhibitory activity IC50): 26.5 µM; IC50 [1]: 375 µM
7 | > 1140 | CC(=O)C=C=C1C(C)(C)C[C@H](O)C[C@]1(C)O [Compound 10, grasshopper ketone] | 
8 |  | CC1=CC(=O)CC(C)(C)[C@@]1(O)/C=C/[C@@H](C)O [Compound 12, vomifoliol] | α-glucosidase inhibitory activity (in words) (α-glucosidase): inactive; IC50 [1]: > 1140 µM
9 | > 2000 | CC1=C(O)C(=O)OC1C (stereo not drawn) [Compound 16, sotolone] | 
10 | > 1230 | CC1=CC(=O)CC(C)(C)[C@H]1/C=C/[C@@H](C)O [Compound 9, (6R,9R)-9-hydroxy-4,7-megastigmadien-3-one] | 

Row | SMILES | IC50 [1, 2] [µM] | further results
11 | CC[C@H](CC[C@@H](C)[C@H]1CC[C@H]2[C@@H]3CC=C4C[C@@H](O)CC[C@]4(C)[C@H]3CC[C@]12C)C(C)C [Compound 1, β-sistosterol] | > 617 | anti-α-glucosidase activity IC50 (α-glucosidase): 283.67 µg/mL
12 | CCCCCCCCCCCCCCCC(=O)OC[C@H]1O[C@@H](O[C@H]2CC[C@@]3(C)C(=CCC4C3CC[C@@]3(C)C4CC[C@@H]3[C@H](C)/C=C/[C@@H](CC)C(C)C)C2)[C@H](O)[C@@H](O)[C@@H]1O (stereo partly drawn) [Compound 3, 3-O-(6′-O-palmitoyl)-β-D-glucopyranosyl stigmasterol] | > 315 | 
